Results from ChEMBL document CHEMBL1150944, “New glycosides from ajuga decumbens” (J Nat Prod, 1998).

Experiments:
[1] = system: Raji; assay: Inhibition of TPA-induced EBV-early antigen activation in human Raji cells at 500 molar ratio after 48 hrs relative to TPA by indirect immunofluorescence technique; values are per cent of control; details: human gammaherpesvirus 4
[2] = Cytotoxicity against human Raji cells assessed as cell viability at 1000 molar ratio after 48 hrs; type: cell-based; details: read-out: Activity
[3] = system: Raji; assay: Inhibition of TPA-induced EBV-early antigen activation in human Raji cells at 100 molar ratio after 48 hrs relative to TPA by indirect immunofluorescence technique; values are per cent of control; details: human gammaherpesvirus 4
[4] = Cytotoxicity against human Raji cells assessed as cell viability at 100 molar ratio after 48 hrs; type: cell-based; details: read-out: Activity
[5] = Cytotoxicity against human Raji cells assessed as cell viability at 10 molar ratio after 48 hrs; type: cell-based; details: read-out: Activity
[6] = system: Raji; assay: Inhibition of TPA-induced EBV-early antigen activation in human Raji cells at 10 molar ratio after 48 hrs relative to TPA by indirect immunofluorescence technique; values are per cent of control; details: human gammaherpesvirus 4
[7] = system: Raji; assay: Inhibition of TPA-induced EBV-early antigen activation in human Raji cells at 1000 molar ratio after 48 hrs relative to TPA by indirect immunofluorescence technique; values are per cent of control; details: human gammaherpesvirus 4
[8] = Cytotoxicity against human Raji cells assessed as cell viability at 500 molar ratio after 48 hrs; type: cell-based; details: read-out: Activity

Row | Compound | level, % of control [1] | viability at 48 h, 1000 molar ratio [2] | level, % of control [3] | viability at 48 h, 100 molar ratio [4] | viability at 48 h, 10 molar ratio [5] | level, % of control [6] | level, % of control [7] | viability at 48 h, 500 molar ratio [8]
1 | CC(=O)O[C@@]1(C)C[C@@H](O)[C@]2(O)C=CO[C@@H](O[C@@H]3O[C@H](CO)[C@@H](O)[C@H](O)[C@H]3O)[C@@H]21 | 19.9% | 60% | 62.6% | > 80% | > 80% | 89.5% | 0% | > 80%
2 | C[C@]1(O)C[C@@H](O)[C@]2(O)C=CO[C@@H](O[C@H]3O[C@H](CO)[C@@H](O)[C@H](O)[C@H]3O)[C@@H]21 | 52.7% |  | 80.1% |  |  | 100% | 0% | 
3 | CC(CO)c1cc2c(c(O)c1O[C@@H]1O[C@H](CO)[C@@H](O)[C@H](O)[C@H]1O)[C@@]1(C)CCC[C@](C)(CO[C@@H]3O[C@H](CO)[C@@H](O)[C@H](O)[C@H]3O)[C@@H]1CC2 (stereo partly specified) [AJUGASIDE A] | 24.9% | 60% | 68.3% | > 80% | > 80% | 91% | 0% | > 80%
4 | COc1ccc(CCO[C@@H]2O[C@H](CO)[C@@H](O)[C@H](O[C@@H]3O[C@@H](C)[C@H](O)[C@@H](O)[C@H]3O)[C@H]2O)cc1O [DARENDOSIDE A] | 53.8% | 70% | 81.6% | > 80% | > 80% | 100% | 22.6% | > 80%
5 | COc1ccc(CCO[C@@H]2O[C@H](CO)[C@@H](OC(=O)/C=C/c3ccc(O)c(OC)c3)[C@H](O[C@@H]3O[C@@H](C)[C@H](O)[C@@H](O)[C@H]3O[C@@H]3O[C@H](CO)[C@H](O)[C@H](O)[C@H]3O)[C@H]2O)cc1O [GALACTOSYLMARTYNOSIDE] | 31.8% | 60% | 76% | > 80% | > 80% | 98.5% | 0% | > 80%
6 | C[C@]1(O)C[C@@H](O)[C@]2(O)C=CO[C@@H](O[C@@H]3O[C@H](CO)[C@@H](O)[C@H](O)[C@H]3O)[C@@H]21 [HARPAGIDE] |  | 60% |  | > 80% | > 80% |  |  | > 80%
7 | COc1ccc(CCO[C@@H]2O[C@H](CO)[C@@H](OC(=O)/C=C/c3ccc(O)c(OC)c3)[C@H](O[C@@H]3O[C@@H](C)[C@H](O)[C@@H](O)[C@H]3O)[C@H]2O)cc1O [MARTYNOSIDE A] | 31.7% | 60% | 66.4% | > 80% | > 80% | 89.4% | 0% | > 80%
8 | CC(=O)O[C@@]1(C)CC[C@]2(O)C=CO[C@@H](O[C@@H]3O[C@H](CO)[C@@H](O)[C@H](O)[C@H]3O)[C@@H]21 [REPTOSIDE] | 22.4% | 60% | 71.3% | > 80% | > 80% | 90.3% | 0% | > 80%
